The values that follow come from PubChem BioAssay (NCI).

Holding throughout (assay): NCI tumour cell line growth inhibition, 48 h
Test [1] concerns DMS 114 small cell lung.
Test [2] has as its system NCI-H23 lung.
For test [3], the system named is HOP-92 NSCLC.
In test [4] the test system is DLD-1 colon.
Test [5] deals with SNB-78 CNS.
Test [6] concerns M19-MEL melanoma.
The test system of test [7] is DMS 273 small cell lung.
Test [8] deals with LXFL 529 NSCLC.
Test [9] relates to SF-539 CNS.
The subject of test [10] is NCI-H460 lung.
The test system of test [11] is KM20L2 colon.
The subject of test [12] is XF 498 CNS.
Test [13] concerns RXF 393 renal.
The test system of test [14] is OVCAR-4 ovarian.
Test [15] relates to HOP-18 NSCLC.

“And” between values parts separate entries of the source, which are not always exact repeats. Equal values may be shown once.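 Five concentrations, 48 hours, 96-well plates. GI50 is the concentration that inhibits growth by half. TGI marks complete inhibition of growth.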

Take `CCOC(=O)N1CCC(N[C@@H]2c3cc4c(cc3C(c3cc(OC)c(O)c(OC)c3)C3C(=O)OC[C@@H]32)OCO4)CC1` (stereo partly specified): the GI50 was 1.9 µM and 0.747 µM in [1]; 0.18 µM and 1.55 µM in test [7]; 2.16 µM and 4.5 µM in test [11]. In addition, the TGI in [1] was 12.4 µM and 4.81 µM; in [2], 2.62 µM and 2.69 µM; in test [3] it was 3.5 µM and 3.67 µM; in [4], 30.6 µM and 14.3 µM; in test [5] it was 50 µM and > 25 µM; in [6], 12.8 µM and 10.2 µM. For the same compound, the TGI in test [7] was 6.03 µM and 9.02 µM; in test [8] it was 21.4 µM and > 25 µM; in [9] it was 5.78 µM and 4.71 µM; in [10], 0.887 µM and 2.88 µM; in test [11] it was 14.5 µM and 15.6 µM.

As to `Cc1ccc(/C=N\NC2c3cc(Cl)ccc3Nc3nc(=O)[nH]c(C)c32)cc1` (stereo unspecified), the TGI in test [1], in [2], in test [12], in test [3], in [4] and in [5] was greater than 100 µM throughout. The TGI in test [13], in test [6], in test [7], in test [8], in [9] and in test [10] was greater than 100 µM throughout. In [11], this compound had a TGI greater than 100 µM.

As to `CSc1nc(SC)c2c(C#N)[nH]nc2n1`, the TGI in [1], in [2], in test [12], in test [3], in [4] and in test [5] was greater than 100 µM in each case. The TGI in test [13], in test [14], in [6], in test [7], in test [9] and in [10] was greater than 100 µM throughout. In [11], this compound showed a TGI greater than 100 µM.

Turning to `CCOC(=O)C1S/C(=N\C(=N)N[N+](=O)[O-])N=C1C` (stereo unspecified), the TGI in test [1], in [2], in test [12], in test [3], in test [4] and in test [13] was greater than 100 µM each time. In addition, the TGI in [14], in [6], in test [8], in test [15], in [9] and in test [10] was greater than 100 µM in each case. The same compound showed a TGI in [11] greater than 100 µM.

For `COC(=O)/C=C\C(C#N)(C#N)N=Cc1ccc(C)cc1`, the TGI was found to be 15.1 µM in test [2]; 3.6 µM in [3]; 3.9 µM in test [13]; 12.9 µM in [14]; 10.9 µM in [9]; 41.1 µM in [10].

Turning to `CC(O)CNC(=O)C(C)Oc1ccc(OCC2CCCCC2)cc1` (stereo unspecified), the TGI in test [1], in test [12], in test [5], in test [14], in test [6] and in [7] was greater than 100 µM each time. Besides, the TGI in [8], in [15], in test [9] and in [10] was greater than 100 µM each time.

As to `N[C@@H](Cc1ccccc1)C(=O)N1CCC[C@@H]1P(=O)(Oc1ccccc1)Oc1ccccc1`, the TGI in test [2], in test [3], in [13], in [14], in [9] and in test [10] was greater than 100 µM in each case.

On to `Oc1cc(Cl)cc2cccnc12`, for which the TGI is 33.4 µM in test [2]; greater than 100 µM in test [3]; 42.9 µM in [13]; greater than 100 µM in test [14]; greater than 67 µM in test [9]; 18.6 µM in test [10].

With `CC(C)(C)[Si](C)(C)OCC1OC(n2ccc(=O)[nH]c2=O)C(O[Si](C)(C)C(C)(C)C)/C1=C/C#N` (stereo unspecified), the TGI in test [2] was greater than 100 µM; in test [3] it was greater than 68.8 µM; in [13], 11.9 µM; in test [14], greater than 100 µM; in test [9], greater than 64 µM; in test [10] it was greater than 100 µM.

Consider `Cc1nc(C)c(C(=O)NNC(=O)C[N+](C)(C)C)cc1C(=O)NNC(=O)C[N+](C)(C)C`, for which the TGI in test [2], in [3], in test [13], in test [14], in [9] and in test [10] was greater than 100 µM throughout.

As for `NCCCN1c2ccccc2Sc2ccc(Cl)cc21`, the TGI was greater than 10 µM in test [2]; greater than 10 µM in test [3]; greater than 10 µM in [13]; greater than 10 µM in [14]; greater than 10 µM in test [9]; greater than 7.31 µM in test [10].

On to `CN1CCOC1c1ccccc1O` (stereo unspecified), for which the TGI in [2], in test [3], in test [13], in test [14], in [9] and in test [10] was greater than 100 µM throughout.

`O=C(/C=C/c1ccccc1)Oc1ccc(C(=O)/C=C/c2ccccc2)cc1`: the TGI in test [2] is 22.4 µM; in test [3] it was 39 µM; in [13], greater than 60.6 µM; in test [14], 55.5 µM; in test [9], 22.3 µM; in test [10], 18.8 µM.

As for `C[C@H](CCC(=O)O)[C@H]1CC[C@H]2[C@@H]3C(=O)C[C@@H]4C[C@H](O)CC[C@]4(C)[C@H]3C[C@H](O)[C@]12C`, the TGI in [2], in test [3], in test [13], in test [14], in test [9] and in test [10] was greater than 100 µM throughout.

For the compound `Cc1nc(C)c(N2CCN([N+](=O)[O-])CC2)c(=O)[nH]1`, the TGI in test [2], in test [3], in test [13], in test [14], in test [9] and in [10] was greater than 100 µM throughout.

With `O=C1OCC/C1=N/O`, the TGI in [1], in test [2], in test [3], in test [4], in test [5] and in test [13] was greater than 100 µM throughout. In addition, the TGI in test [14], in test [6], in test [7], in test [8], in [15] and in test [9] was greater than 100 µM throughout. In addition, the TGI in [10] and in test [11] was greater than 100 µM throughout.

`COc1ccc(-c2nc(SCC(=O)NNC(=S)Nc3ccccc3)[nH]c2-c2ccc(OC)cc2)cc1`: the TGI in test [2] is 39.3 µM; in test [3] it was 44.9 µM; in [13], 43.9 µM; in [14], greater than 100 µM; in test [9] it was 30.9 µM; in [10], 32.2 µM.

For the compound `C=C1C(=O)CC2C1CC(=O)/C(C)=C/CCC(C)(O)C2O` (stereo unspecified), the TGI in test [2] is 20.6 µM; in test [3], 15.8 µM; in test [13], 11.6 µM; in test [14], 29.1 µM; in [9], greater than 24.4 µM; in test [10], 45.5 µM.

Turning to `N#CNC(=NCc1ccccc1)N(Cc1ccccc1)Cc1ccccc1`, the TGI in test [2] was greater than 31.6 µM; in test [3] it was greater than 31.6 µM; in test [13] it was greater than 100 µM; in [14], greater than 31.6 µM; in test [9], greater than 31.6 µM; in [10] it was greater than 31.6 µM.

Take `CCOC(=O)c1cccc(N=Nc2nc[nH]c2/C=C/C(=O)OC)c1`: the TGI in test [2] is greater than 100 µM; in test [3] it was greater than 100 µM; in [13] it was greater than 100 µM; in test [14] it was greater than 100 µM; in [9], greater than 100 µM; in test [10], 53 µM.

Turning to `C/C(=N\N=C1/C(=O)OC(c2ccccc2)=C1C(=O)c1ccccc1)c1ccc([N+](=O)[O-])cc1`, the TGI was greater than 100 µM in test [2]; 83.3 µM in [3]; greater than 100 µM in test [13]; greater than 100 µM in test [14]; greater than 100 µM in [9]; greater than 100 µM in test [10].

Turning to `C=CCn1c(=O)c(C(=O)Nc2nc(C34CC5CC(CC(C5)C3)C4)cs2)c(O)c2ccccc21`, the TGI is greater than 100 µM in test [2]; 84.4 µM in [3]; greater than 100 µM in [13]; greater than 100 µM in [14]; greater than 100 µM in [9]; greater than 100 µM in test [10].

`CC(C)c1cc2c(c(O)c1O)[C@@]1(C(=O)O)CCCC(C)(C)[C@@H]1CC2`: the TGI in test [2] was 46.9 µM; in test [3], 20.8 µM; in test [13] it was 66.7 µM; in test [14], greater than 100 µM; in [9] it was 38.8 µM; in [10], 50.9 µM.

Regarding `COc1ccc(C2OC(c3ccncc3)=NN2C)cc1F` (stereo unspecified), the TGI in [2], in test [3], in [13], in test [14], in [9] and in test [10] was greater than 100 µM in each case.

Turning to `CC1=Cc2cccc(C)c2C(=O)C1=O`, the TGI in test [2] was 32.8 µM; in test [12] it was 9.65 µM; in test [3] it was 2.92 µM; in [4] it was 4.32 µM; in [5], greater than 100 µM; in test [13], 8.85 µM. For the same compound, the TGI in [14] was 10.1 µM; in [6], 23.6 µM; in test [7] it was 38.2 µM; in [8], 5.27 µM; in [15] it was 2.79 µM; in test [9] it was 15.5 µM. The figures for the TGI in test [10] and in test [11] were 41.9 µM and 35.5 µM, respectively.

For the compound `COC(C)(C)C1(O)CC[C@@H](C)CC1=O` (stereo partly specified), the TGI in test [2], in test [3], in test [13], in test [14], in test [9] and in test [10] was greater than 100 µM each time.

For the compound `CSc1cc(-c2cccs2)sc1-c1cc(SC)c(-c2sc(-c3sc(-c4cccs4)cc3SC)cc2SC)s1`, the TGI in test [2], in test [3], in test [13], in test [14], in [9] and in [10] was greater than 100 µM in each case.

For `NS(=O)(=O)c1ccc(NC(=S)/N=C/C2=C(O)c3ccccc3C2=O)cc1`, the TGI in [2], in test [3], in [13], in [14], in test [9] and in test [10] was greater than 100 µM each time.

On to `BrC(=C(c1ccc(OC2CCCCO2)cc1)c1ccc(OC2CCCCO2)cc1)c1ccccc1` (stereo unspecified), for which the TGI in test [2], in test [3], in test [13], in test [14], in test [9] and in [10] was greater than 100 µM throughout.

With `Cc1c(/C=N\NC(=S)NCCNC(=S)N/N=C\c2c(C)n(C)n(-c3ccccc3)c2=O)c(=O)n(-c2ccccc2)n1C`, the TGI in [2], in test [3], in test [13], in [14], in test [9] and in test [10] was greater than 100 µM in each case.

For the compound `O=[N+]([O-])C(=C(Nc1ccccc1)Nc1ccccc1)C(Cl)=C(Cl)Cl`, the TGI in test [2] is 30 µM; in test [3] it was 33.9 µM; in test [13], 31.8 µM; in test [14] it was 24.8 µM; in [9], 35.4 µM; in [10] it was 33 µM.

With `CC(C)SC(=S)Sc1c(Cl)c(Cl)nc(Cl)c1Cl`, the TGI in test [2] was 29 µM; in test [3], 21.4 µM; in test [13] it was 9.17 µM; in test [14], 28.4 µM; in test [9], 24.8 µM; in [10], 36.6 µM.
